Measured values reported in US8603437B2, “Methods for tumor diagnosis and therapy” (President and Fellows of Harvard College, priority 2000, dated 2013).

Legend:
[1] = mouse, in vivo, iv
[2] = Chemical nature of radioactivity in blood (stability), TLC and autoradiography of blood samples; assay type: in vivo, mice; details: blood samples from first 40 min, ethanol supernatant, TLC; single spot with same Rf as 127I-labeled Compound A
Excerpt: The plates were run in acetonitrile-water (1.5:2) and autoradiographed.

[3] = system: alkaline phosphatase (ALP); details: ~10 μCi/100 μl 0.1 M Tris pH 7.2, 5 units ALP; only with active enzyme, not heat-inactivated ALP
[4] = system: alkaline phosphatase (ALP)
Procedure: The animals were killed 1 hour later and the radioactivity in the forelimbs was measured.

[5] = Blood clearance after i.v. injection in mice; details: bled over 1 hour, blood radioactivity
[6] = Retention of radioactivity in forelimb after s.c. injection, and 24 hour biodistribution; assay type: in vivo, mice
Procedure: […] […] The animals were killed after 1 hour, 24 hours, and 48 hours, the radioactivity associated with the forelimbs was measured, and the percentage of radioactivity remaining was calculated (at the 24 hour time point, the biodistribution of radioactivity in various tissues and organs was also determined).

[7] = Biodistribution in normal mice after i.v. injection; assay type: in vivo; details: for affinity / avidity for normal tissues: 1 hour and 24 hours; for injected dose remaining in the body by 24 hours: ~5 μCi/100 μl
Procedure: Mice (n=30) were injected i.v. with the radiopharmaceutical (˜5 μCi/100 μl), the animals were killed at 1 hour (n=15) and 24 hours (n=15), and the radioactivity associated with blood, tissues, and organs was determined.
The biodistribution of ^125I-labeled Compound B was also examined in various tissues in normal mice. […] However, by 24 hours (FIG. 5), all tissues and organs (with the exception of minimal activity in the thyroid) were virtually void of radioactivity (<4% of the injected dose remained in the body by 24 hours).

[8] = Solubility observations; assay type: physicochemical

| solubility in DMSO ([8]; 100 μl DMSO) | behaviour on adding water to the DMSO solution ([8]; 100 μl water added to 100 μl DMSO) | localization of escaped radioactivity in normal tissues ([6]; biodistribution 24 hours after s.c. injection) | change in forelimb radioactivity between 24 hours and 48 hours ([6]; s.c. forelimb) | injected activity remaining at the injection site at 24 hours ([6]; s.c. right forelimb, 5 μl DMSO solution followed by 5 μl saline) | radioactivity in all tissues examined at 1 hour ([7]; 1 hour) | Structure (SMILES) | blood clearance of radioactivity [1] | stability in blood: chemical nature of radioactivity [2] | conversion to 125I-labeled Compound B [3] | radioactive content within forelimbs pre-injected with ALP ([4]; ALP 50-400 units/10 μl s.c., 20 μCi i.v. five minutes later, killed 1 hour later) | uptake in forelimbs pre-injected with heat-inactivated ALP ([4]; heat-inactivated ALP s.c., i.v. prodrug, 1 hour) | T1/2β [5] | fraction seeped out of the s.c. pocket by 24 hours ([6]; s.c. left forelimb, 5 μCi/5 μl saline followed by 5 μl DMSO) | dehalogenation (thyroid activity) [7] | affinity / avidity for normal tissues [7] | injected dose remaining in the body by 24 hours [7] |
| --- | --- | --- | --- | --- | --- | --- | --- | --- | --- | --- | --- | --- | --- | --- | --- | --- |
|  |  |  |  |  |  | N.O=c1[nH]c(-c2ccccc2OP(=O)(O)O)nc2ccc(I)cc12 [^125-I labeled Compound A, Ammonium 2-(2′-Phosphoryloxyphenyl)-6-iodo-4-(3H)-quinazolinone] | rapid biphasic blood clearance | no evidence of free iodine | complete conversion | increased with enzyme dose and plateaued at the highest concentrations | no increase in uptake | 51.1 ± 6.8 min | greater than 98% | minimal dehalogenation | low affinity to normal tissues | < 20 % of the injected dose |
| completely soluble | visible precipitate forms immediately | does not localize in any normal tissues | no change | 71±5% | < 15 % ID/g | O=c1[nH]c(-c2ccccc2O)nc2ccc(I)cc12 [^125-I labeled Compound B, 2-(2′-Hydroxyphenyl)-6-iodo-4-(3H)-quinazolinone] |  |  |  |  |  |  |  |  | no avidity for any tissue | < 4 % of the injected dose |
